# Test results from article PMC9598926, “Design and Synthesis of (Z)-5-(Substituted benzylidene)-3-cyclohexyl-2-thioxothiazolidin-4-one Analogues as Anti-Tyrosinase and Antioxidant Compounds: In Vitro and In Silico Insights” (Antioxidants, 2022).
# Key:
# [1] = ROS scavenging activity assay (DCFH-DA/esterase, SIN-1); details: SIN–1 10 µM; 5, 10, 20 µM
# Protocol: 2.13. ROS Scavenging Activity Assay
# The ROS scavenging activities of analogs 1–8 and Troloxwere determined as previously described by Ali et al. and Lebel and Bondy. Briefly, 2.5 mM DCFH-DA (2’,7’-dichlorodihydrofluorescein diacetate) (Molecular Probes, Eugene, OR, USA) solution was mixed with esterase (1.5 units/mL) in 50 mM phosphate buffer (pH 7.4), held for 30 min at 37 °C, and keep on ice in the dark until required. Tested compounds (10 µL; final concentrations: 5, 10, and 20 µM) dissolved in DMSO and SIN-1 (3-morpholinosydnonimine) (10 µM) and 180 µL of phosphate buffer in the wells of a black 96-well plate for 30 min. The 50 µL of DCFH-DA-esterase mixture (20 µM) was added. Fluorescence intensities of oxidized DCFH (DCF or 2′,7′-dichlorofluorescein) were measured using a microplate reader (Berthold Advances GmbH & Co., Bad Wildbad, Germany) with excitation and emission wavelengths of 485 and 530 nm, respectively. Trolox was used as the reference control.
# Since it has been reported that reactive oxygen species (ROS) are concerned in the regulation of melanogenesis, we examined the ROS scavenging activities of analogs 1–8 using DCFH-DA (2′,7′-dichlorodihydrofluorescein diacetate) and esterase. Trolox and SIN–1 (3-morpholinosydnonimine) were used as the positive control and a ROS generator, respectively. Hydrolysis of DCFA-DA by esterase generates DCFH (2′,7′-dichlorodihydrofluorescein), which reacts with ROS generated by SIN–1 to produce the fluorescent compound DCF (2′,7′-dichlorofluorescein). Thus, ROS scavenging activities of analogs were assessed by measuring DCF fluorescence. […] Test samples including Trolox were treated at three different concentrations (5, 10, or 20 µM).
# mushroom tyrosinase = assay: Kinetic studies on mushroom tyrosinase inhibition (Lineweaver–Burk and Dixon plots, L-tyrosine); assay type: biochemical; details: for mode of mushroom tyrosinase inhibition: L-tyrosine as substrate; for Ki: mushroom tyrosinase
# Protocol: 2.6. Kinetic Studies on Mushroom Tyrosinase Inhibition by Analogues 2 and 3
# Lineweaver–Burk plots of analogues 2 and 3 were used to determine modes of mushroom tyrosinase inhibition in the presence of L-tyrosine as substrate. Briefly, 20 µL of an aqueous mushroom tyrosinase solution (200 units/mL), and 170 µL of an aqueous solution consisting of L-tyrosine at various concentrations (final concentrations: 0, 1, 2, 4, 8, or 16 mM), and sodium phosphate buffer (pH 6.5, final concentration: 14.7 mM) were added to the wells of a 96-well microplate. Subsequently, analogues 2 and 3 at four different concentrations (10 µL; final concentrations 0, 5, 10, or 20 µM in DMSO solution for 2, and concentrations of 0, 1, 2, or 4 µM in DMSO solution for 3) were added to wells. Initial rates of dopachrome formation were determined by measuring changes in absorbance at 475 nm per min (ΔOD475/min) using a microplate reader (VersaMax®, Molecular Devices, Sunnyvale, CA, USA). Maximum velocities (Vmax) were calculated from Lineweaver–Burk plots obtained using six different L-tyrosine concentrations. The modes of mushroom tyrosinase inhibition by the analogs were determined using the locations of plot convergence points.
# Lineweaver–Burk double reciprocal plots were used to analyze enzyme’s inhibitory mechanisms. Kinetic studies were conducted using four different concentrations of analogs 2 (0, 5, 10, or 20 μM) and 3 (0, 1, 2, or 4 μM) in the presence of L-tyrosine at five different concentrations (1, 2, 4, 8, or 16 mM).
# [2] = ABTS cation radical scavenging activity assay; details: test sample 100 µM, 2 min in the dark
# Protocol: 2.12. ABTS Cation Radical Scavenging Activity Assay
# The free radical scavenging activities of analogs 1–8 and Trolox were determined using an ABTS radical cation decolorization assay (SEJIN CI Co., Seoul, Korea), as previously described with minor modification. Trolox was used as the positive control. ABTS radicals were produced by adding 10 mL of 7 mM ABTS in distilled water to 10 mL of 2.45 mM aqueous potassium persulfate solution. The mixture was kept in the dark for 12–16 h at RT until the reaction was complete and absorbance had stabilized. The prepared free radical solution was then diluted with methyl alcohol so that the optical density at 734 nm was 0.70 ± 0.02. Test samples (10 µL, final concentration at 100 µM) dissolved in EtOH/DMSO (9:1 v/v) were added to the diluted free radical solution (90 µL) in a 96-well plate. After standing at RT for 2 min in the dark, well absorbances were measured at 734 nm, and ABTS radical scavenging activities were calculated using the following formula:ABTS free radical scavenging activity (%) = (Ac − As) × 100/Ac(2) where Ac indicates the absorbance of the non-treated control, and As indicates the absorbances of test samples. Experiments were conducted independently 3 times.
# The ABTS (2,2′-azino-bis(3-ethylbenzothiazoline-6-sulfonic acid)) cation radical scavenging assay is also commonly used to evaluate antioxidant effects. ABTS is converted to the ABTS radical cation by the transfer of one electron to potassium persulfate. Trolox was used as the positive control, and assays were performed at a test sample (analogs 1–8 and Trolox) concentration of 100 µM. The ABTS radical solution obtained by a reaction of ABTS with potassium persulfate was mixed with test samples and left in the dark for 2 min. ABTS radical scavenging abilities were evaluated by measuring absorbances at 734 nm. […] On the other hand, analog 1 with a 4-hydroxyphenyl group, and analogs 7 and 8 with bromo substituents on the β-phenyl ring weakly scavenged the ABTS radical (16.6–24.8% scavenging). […] Furthermore, the results for ABTS and DPPH radical scavenging activities were similar.
structure (smiles),measurement,setting,value
"O=C1/C(=C/c2ccc(O)cc2O)SC(=S)N1C1CCCCC1 [Analog 3, (Z)-3-Cyclohexyl-5-(2,4-dihydroxybenzylidene)-2-thioxothiazolidin-4-one]",ROS scavenging,[1],significantly and concentration-dependently scavenged ROS
same,ROS scavenging compared with Trolox,[1],more potently than Trolox
same,mode of mushroom tyrosinase inhibition,mushroom tyrosinase; Lineweaver–Burk plots,non-competitive
same,Km,"mushroom tyrosinase; Lineweaver–Burk plots, L-tyrosine, independent of analog 3 concentration (0, 1, 2, 4 µM)",2810 µM
same,Ki,mushroom tyrosinase; L-tyrosine,1270 nM
same,ABTS radical scavenging activity,[2],72.1%
"O=C1/C(=C/c2ccc(O)c(O)c2)SC(=S)N1C1CCCCC1 [Analog 2, (Z)-3-Cyclohexyl-5-(3,4-dihydroxybenzylidene)-2-thioxothiazolidin-4-one]",ROS scavenging,[1],significantly and concentration-dependently scavenged ROS
same,ROS scavenging compared with Trolox,[1],more potently than Trolox
same,mode of mushroom tyrosinase inhibition,mushroom tyrosinase; Lineweaver–Burk plots,competitively
same,Vmax,"mushroom tyrosinase; Lineweaver–Burk plots, L-tyrosine, independent of analog 2 concentration (0, 5, 10, 20 µM)",0.00343 mM/min
same,Ki,mushroom tyrosinase; L-tyrosine,2220 nM
same,ABTS radical scavenging activity,[2],81.0%
